Measured values: patent US12448389B2, “BRM targeting compounds and associated methods of use” (Prelude Therapeutics Incorporated, priority 2020, dated 2025)

Experiments:
SMARCA2-HiBiT = biological target: T1, SMARCA2-HiBiT (Homo sapiens, UniProt P51531); experiment: SMARCA2 HiBiT degradation assay in HeLa cells; type: cell-based; conditions: 18 hours incubation; for DC50: read-out: HeLa_HiBit-SM2 DC50; for Dmax: HeLa, read-out: HeLa-HiBit-SM2 Dmax (%)
T1 construct: SMARCA2-HiBiT knock-in Hela monoclonal cell (CS302366); host or cells: HeLa monoclonal knock-in line (CRISPR HiBiT knock-in at the endogenous locus, heterozygous)
Method in brief: (§1)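 HeLa monoclonal lines with heterozygous HiBiT knock-in were seeded at 2500 cells/well in EMEM with 10% FBS and treated with compound for 18 h at 37 °C. Remaining tagged protein was measured by Nano-Glo HiBiT lytic luminescence after 30–60 min at RT, and values came from curve fitting.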

SMARCA4-HiBiT = biological target: T2, SMARCA4-HiBiT (Homo sapiens, UniProt P51532); experiment: SMARCA4 HiBiT degradation assay in HeLa cells; type: cell-based; conditions: 18 hours incubation; for DC50: read-out: HeLa-HiBit-SM4 DC50; for Dmax: HeLa, read-out: HeLa-HiBit-SM4 Dmax (%)
T2 construct: SMARCA4-HiBiT knock-in Hela monoclonal cell (CS3023226); host or cells: HeLa monoclonal knock-in line (CRISPR HiBiT knock-in at the endogenous locus, heterozygous)
Method in brief: as §1

T2 sequence (P51532 whole entry): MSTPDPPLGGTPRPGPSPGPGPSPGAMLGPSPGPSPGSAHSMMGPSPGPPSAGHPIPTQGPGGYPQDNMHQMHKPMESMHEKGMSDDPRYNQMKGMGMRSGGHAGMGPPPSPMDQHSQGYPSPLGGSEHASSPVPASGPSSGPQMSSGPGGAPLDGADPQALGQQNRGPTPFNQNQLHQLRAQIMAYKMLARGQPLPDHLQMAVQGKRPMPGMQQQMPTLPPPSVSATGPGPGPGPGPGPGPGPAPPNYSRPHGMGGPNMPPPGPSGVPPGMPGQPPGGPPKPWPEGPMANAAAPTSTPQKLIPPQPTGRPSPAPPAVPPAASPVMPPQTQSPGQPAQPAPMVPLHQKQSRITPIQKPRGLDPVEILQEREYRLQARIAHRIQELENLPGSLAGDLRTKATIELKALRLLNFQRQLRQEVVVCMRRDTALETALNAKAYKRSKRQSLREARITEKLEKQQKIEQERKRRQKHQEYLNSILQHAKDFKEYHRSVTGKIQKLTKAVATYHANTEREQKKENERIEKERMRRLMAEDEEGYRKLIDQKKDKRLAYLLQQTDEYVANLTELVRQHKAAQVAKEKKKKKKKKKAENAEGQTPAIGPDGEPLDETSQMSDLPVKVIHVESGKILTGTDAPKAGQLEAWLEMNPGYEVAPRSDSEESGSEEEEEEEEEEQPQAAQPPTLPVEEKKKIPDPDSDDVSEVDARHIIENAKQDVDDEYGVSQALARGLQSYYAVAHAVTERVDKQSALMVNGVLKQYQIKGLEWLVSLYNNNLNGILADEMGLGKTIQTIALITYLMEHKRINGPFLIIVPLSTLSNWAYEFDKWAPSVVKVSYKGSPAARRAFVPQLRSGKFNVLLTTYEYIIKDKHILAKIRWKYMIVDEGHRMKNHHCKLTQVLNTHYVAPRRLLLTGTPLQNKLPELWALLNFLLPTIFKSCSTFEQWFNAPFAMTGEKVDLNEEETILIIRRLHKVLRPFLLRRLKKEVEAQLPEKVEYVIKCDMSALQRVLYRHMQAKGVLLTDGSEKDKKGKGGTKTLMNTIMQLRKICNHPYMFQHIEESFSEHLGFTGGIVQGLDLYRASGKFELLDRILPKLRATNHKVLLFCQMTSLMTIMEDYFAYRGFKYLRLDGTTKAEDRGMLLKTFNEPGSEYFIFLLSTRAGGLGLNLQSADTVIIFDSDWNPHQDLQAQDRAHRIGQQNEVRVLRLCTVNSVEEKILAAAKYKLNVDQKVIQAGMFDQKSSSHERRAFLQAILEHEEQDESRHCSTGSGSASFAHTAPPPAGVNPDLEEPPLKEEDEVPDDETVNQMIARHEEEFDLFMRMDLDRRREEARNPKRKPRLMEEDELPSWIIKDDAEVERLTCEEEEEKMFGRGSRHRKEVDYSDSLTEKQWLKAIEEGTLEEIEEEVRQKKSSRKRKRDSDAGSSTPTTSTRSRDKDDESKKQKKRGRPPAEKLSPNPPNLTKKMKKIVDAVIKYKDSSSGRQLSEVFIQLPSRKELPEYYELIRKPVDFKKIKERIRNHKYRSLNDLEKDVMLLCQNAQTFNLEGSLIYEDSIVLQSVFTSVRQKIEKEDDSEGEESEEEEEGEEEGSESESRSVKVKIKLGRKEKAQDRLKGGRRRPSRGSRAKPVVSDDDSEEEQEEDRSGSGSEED
T1 sequence (P51531 whole entry): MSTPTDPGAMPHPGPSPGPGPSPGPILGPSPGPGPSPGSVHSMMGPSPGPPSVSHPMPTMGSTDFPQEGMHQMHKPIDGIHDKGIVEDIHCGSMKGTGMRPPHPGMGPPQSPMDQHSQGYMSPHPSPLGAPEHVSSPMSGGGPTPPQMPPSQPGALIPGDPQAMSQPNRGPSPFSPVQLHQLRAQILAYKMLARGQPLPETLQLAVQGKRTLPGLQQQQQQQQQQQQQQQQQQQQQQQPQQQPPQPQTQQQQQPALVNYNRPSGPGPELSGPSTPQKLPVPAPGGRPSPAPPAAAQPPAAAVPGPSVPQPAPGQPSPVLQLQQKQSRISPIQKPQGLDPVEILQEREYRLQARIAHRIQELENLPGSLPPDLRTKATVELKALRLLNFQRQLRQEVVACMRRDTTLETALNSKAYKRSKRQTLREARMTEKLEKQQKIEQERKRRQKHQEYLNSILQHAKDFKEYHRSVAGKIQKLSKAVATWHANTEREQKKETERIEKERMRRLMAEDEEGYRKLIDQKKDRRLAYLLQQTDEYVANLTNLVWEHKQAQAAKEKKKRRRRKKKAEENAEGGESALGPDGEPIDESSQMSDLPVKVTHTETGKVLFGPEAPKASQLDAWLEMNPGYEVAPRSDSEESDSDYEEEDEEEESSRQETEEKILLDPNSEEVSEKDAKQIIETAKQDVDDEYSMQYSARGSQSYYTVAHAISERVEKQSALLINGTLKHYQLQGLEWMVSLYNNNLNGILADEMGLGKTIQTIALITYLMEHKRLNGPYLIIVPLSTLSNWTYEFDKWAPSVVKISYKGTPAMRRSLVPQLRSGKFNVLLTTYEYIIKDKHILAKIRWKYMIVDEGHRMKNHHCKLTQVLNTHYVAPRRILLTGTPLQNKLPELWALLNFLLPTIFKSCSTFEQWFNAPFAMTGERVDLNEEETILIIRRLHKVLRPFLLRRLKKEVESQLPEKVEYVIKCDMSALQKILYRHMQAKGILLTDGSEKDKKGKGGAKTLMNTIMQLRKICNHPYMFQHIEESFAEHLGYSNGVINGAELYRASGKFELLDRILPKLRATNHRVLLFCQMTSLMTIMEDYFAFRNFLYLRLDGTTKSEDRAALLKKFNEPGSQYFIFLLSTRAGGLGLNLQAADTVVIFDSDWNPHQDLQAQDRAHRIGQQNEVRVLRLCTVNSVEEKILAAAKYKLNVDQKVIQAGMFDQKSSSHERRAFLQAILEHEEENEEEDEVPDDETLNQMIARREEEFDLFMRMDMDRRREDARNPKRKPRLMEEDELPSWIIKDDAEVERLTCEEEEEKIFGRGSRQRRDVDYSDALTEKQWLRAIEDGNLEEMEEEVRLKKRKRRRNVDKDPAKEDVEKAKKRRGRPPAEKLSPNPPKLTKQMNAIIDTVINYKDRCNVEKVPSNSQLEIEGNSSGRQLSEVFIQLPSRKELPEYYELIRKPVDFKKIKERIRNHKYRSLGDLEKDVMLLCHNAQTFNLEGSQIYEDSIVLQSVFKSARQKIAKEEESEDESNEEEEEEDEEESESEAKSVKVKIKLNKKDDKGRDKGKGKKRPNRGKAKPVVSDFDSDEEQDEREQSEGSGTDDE

DC50 (SMARCA2-HiBiT) [µM]	DC50 (SMARCA4-HiBiT) [µM]	Dmax (SMARCA2-HiBiT) [%]	Dmax (SMARCA4-HiBiT) [%]	Structure (SMILES)
< 0.01	< 0.01			CCC1CN(CC2CCN(c3ccc4c(c3)C(=O)N(C3CCC(=O)NC3=O)C4)CC2)CCN1C(=O)N1CCN2c3cc(-c4ccccc4O)nnc3NC[C@H]2C1 (stereo partly drawn) [Example 271, 3-(6-(4-((3-ethyl-4-((S)-2-(2-hydroxyphenyl)-6,6a,7,8,9,10-hexahydro-5H-pyrazino[1′,2′:4,5]pyrazino[2,3-c]pyridazine-8-carbonyl)piperazin-1-yl)methyl)piperidin-1-yl)-1-oxoisoindolin-2-yl)piperidine-2,6-dione]
< 0.01	0.01 to 0.1	50 to 75	≤ 50	O=C1CCC(N2C(=O)c3ccc(N4Cc5cnc(N6C[C@@H]7[C@@H](CN8CCN9c%10cc(-c%11ccccc%11O)nnc%10NC[C@H]9C8)[C@@H]7C6)nc5C4)cc3C2=O)C(=O)N1 (stereo partly drawn) [Example 58, 2-(2,6-dioxopiperidin-3-yl)-5-(2-((1R,5S,6s)-6-(((S)-2-(2-hydroxyphenyl)-5,6,6a,7,9,10-hexahydro-8H-pyrazino[1′,2′:4,5]pyrazino[2,3-c]pyridazin-8-yl)methyl)-3-azabicyclo[3.1.0]hexan-3-yl)-5,7-dihydro-6H-pyrrolo[3,4-d]pyrimidin-6-yl) isoindoline-1,3-dione]
< 0.01	< 0.01	> 85	75 to 85	O=C1CCC(N2C(=O)c3ccc(N4CCC(O)(CN5CCC(CN6CCN7c8cc(-c9ccccc9O)nnc8NC[C@H]7C6)CC5)CC4)cc3C2=O)C(=O)N1 (stereo partly drawn) [Example 50, 2-(2,6-dioxopiperidin-3-yl)-5-(4-hydroxy-4-((4-(((S)-2-(2-hydroxyphenyl)-5,6,6a,7,9,10-hexahydro-8H-pyrazino[1′,2′:4,5]pyrazino[2,3-c]pyridazin-8-yl)methyl)piperidin-1-yl)methyl)piperidin-1-yl)isoindoline-1,3-dione]
< 0.01	< 0.01	> 85	> 85	CN(C(=O)N1CCN2c3cc(-c4ccccc4O)nnc3NC[C@H]2C1)C1CCN(CC2CCN(c3ccc4c(c3)CN(C3CCC(=O)NC3=O)C4=O)CC2)CC1 (stereo partly drawn) [Example 139, (6aS)-N-(1-((1-(2-(2,6-dioxopiperidin-3-yl)-1-oxoisoindolin-5-yl)piperidin-4-yl)methyl)piperidin-4-yl)-2-(2-hydroxyphenyl)-N-methyl-5,6,6a,7,9,10-hexahydro-8H-pyrazino[1′,2′:4,5]pyrazino[2,3-c]pyridazine-8-carboxamide]
< 0.01	< 0.01	> 85	> 85	O=C1CCC(N2C(=O)c3ccc(NCCN4CCC(N5CCN6c7cc(-c8cc(F)ccc8O)nnc7NC[C@H]6C5)CC4)cc3C2=O)C(=O)N1 (stereo partly drawn) [Example 242, 2-(2,6-dioxopiperidin-3-yl)-5-((2-(4-((S)-2-(5-fluoro-2-hydroxyphenyl)-5,6,6a,7,9,10-hexahydro-8H-pyrazino[1′,2′:4,5]pyrazino[2,3-c]pyridazin-8-yl)piperidin-1-yl)ethyl)amino)isoindoline-1,3-dione]
< 0.01	< 0.01	> 85	> 85	O=C1CCC(N2Cc3ccc(N4CCC(CN5CCC(F)(CN6CCN7c8cc(-c9ccccc9O)nnc8NC[C@H]7C6)CC5)CC4)cc3C2=O)C(=O)N1 (stereo partly drawn) [Example 233, 3-(6-(4-((4-fluoro-4-(((S)-2-(2-hydroxyphenyl)-5,6,6a,7,9,10-hexahydro-8H-pyrazino[1′,2′:4,5]pyrazino[2,3-c]pyridazin-8-yl)methyl)piperidin-1-yl)methyl)piperidin-1-yl)-1-oxoisoindolin-2-yl)piperidine-2,6-dione]
< 0.01	< 0.01	> 85	> 85	CC(C1CCN(c2ccc3c(c2)C(=O)N(C2CCC(=O)NC2=O)C3=O)CC1)N1CCC(CCCN2CCN3c4cc(-c5ccccc5O)nnc4NC[C@H]3C2)CC1 (stereo partly drawn) [Example 248, 2-(2,6-dioxopiperidin-3-yl)-5-(4-(1-(4-(3-((S)-2-(2-hydroxyphenyl)-5,6,6a,7,9,10-hexahydro-8H-pyrazino[1′,2′:4,5]pyrazino[2,3-c]pyridazin-8-yl)propyl)piperidin-1-yl)ethyl)piperidin-1-yl)isoindoline-1,3-dione]
